This note sets out measurements from ChEMBL document CHEMBL4680160, “A perspective review on fatty acid amide hydrolase (FAAH) inhibitors as potential therapeutic agents” (Eur J Med Chem, 2020).

The target in series [1] is T1, Fatty-acid amide hydrolase 1 (Homo sapiens, UniProt O00519).
T1 sequence (O00519 whole entry): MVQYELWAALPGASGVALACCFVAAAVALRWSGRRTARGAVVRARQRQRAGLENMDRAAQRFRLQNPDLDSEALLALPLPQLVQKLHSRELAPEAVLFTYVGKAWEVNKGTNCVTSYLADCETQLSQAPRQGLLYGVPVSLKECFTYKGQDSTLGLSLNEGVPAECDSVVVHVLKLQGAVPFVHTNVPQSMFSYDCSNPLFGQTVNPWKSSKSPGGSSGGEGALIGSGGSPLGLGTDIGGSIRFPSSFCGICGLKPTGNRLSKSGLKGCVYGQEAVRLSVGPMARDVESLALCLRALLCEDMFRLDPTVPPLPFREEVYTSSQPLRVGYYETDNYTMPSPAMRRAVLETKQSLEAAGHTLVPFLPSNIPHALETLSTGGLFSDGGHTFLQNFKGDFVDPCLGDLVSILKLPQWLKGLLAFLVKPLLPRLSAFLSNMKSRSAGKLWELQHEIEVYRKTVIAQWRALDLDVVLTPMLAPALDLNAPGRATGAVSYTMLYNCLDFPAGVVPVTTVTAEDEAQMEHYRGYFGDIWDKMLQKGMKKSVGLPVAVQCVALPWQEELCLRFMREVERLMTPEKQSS
Put plainly: Inhibition of FAAH (unknown origin).

The target in series [2] is T2, Fatty-acid amide hydrolase 1 (Rattus norvegicus, UniProt P97612).
T2 sequence (P97612 whole entry): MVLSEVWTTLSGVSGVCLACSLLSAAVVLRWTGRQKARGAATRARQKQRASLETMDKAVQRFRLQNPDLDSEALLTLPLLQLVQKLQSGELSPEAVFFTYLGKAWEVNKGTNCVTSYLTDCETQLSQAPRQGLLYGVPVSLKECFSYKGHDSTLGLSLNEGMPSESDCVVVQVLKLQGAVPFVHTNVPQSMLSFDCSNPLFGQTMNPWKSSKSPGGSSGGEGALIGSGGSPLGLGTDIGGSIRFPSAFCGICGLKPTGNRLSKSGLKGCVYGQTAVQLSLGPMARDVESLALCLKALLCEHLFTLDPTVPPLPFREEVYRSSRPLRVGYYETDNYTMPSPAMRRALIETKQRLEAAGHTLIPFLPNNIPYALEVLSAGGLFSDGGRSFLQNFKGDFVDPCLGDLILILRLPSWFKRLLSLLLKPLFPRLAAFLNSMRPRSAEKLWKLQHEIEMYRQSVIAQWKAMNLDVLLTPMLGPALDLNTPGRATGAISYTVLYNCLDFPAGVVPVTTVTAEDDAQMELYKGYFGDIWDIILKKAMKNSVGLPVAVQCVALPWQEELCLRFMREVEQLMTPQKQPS
Put plainly: Inhibition of rat FAAH expressed in HEK293 cells using AEA as substrate by HPLC-MS/MS analysis. It counts as cell-based.

For series [3], the target named is T3, Fatty-acid amide hydrolase 1 (Mus musculus, UniProt O08914).
T3 sequence (O08914 whole entry): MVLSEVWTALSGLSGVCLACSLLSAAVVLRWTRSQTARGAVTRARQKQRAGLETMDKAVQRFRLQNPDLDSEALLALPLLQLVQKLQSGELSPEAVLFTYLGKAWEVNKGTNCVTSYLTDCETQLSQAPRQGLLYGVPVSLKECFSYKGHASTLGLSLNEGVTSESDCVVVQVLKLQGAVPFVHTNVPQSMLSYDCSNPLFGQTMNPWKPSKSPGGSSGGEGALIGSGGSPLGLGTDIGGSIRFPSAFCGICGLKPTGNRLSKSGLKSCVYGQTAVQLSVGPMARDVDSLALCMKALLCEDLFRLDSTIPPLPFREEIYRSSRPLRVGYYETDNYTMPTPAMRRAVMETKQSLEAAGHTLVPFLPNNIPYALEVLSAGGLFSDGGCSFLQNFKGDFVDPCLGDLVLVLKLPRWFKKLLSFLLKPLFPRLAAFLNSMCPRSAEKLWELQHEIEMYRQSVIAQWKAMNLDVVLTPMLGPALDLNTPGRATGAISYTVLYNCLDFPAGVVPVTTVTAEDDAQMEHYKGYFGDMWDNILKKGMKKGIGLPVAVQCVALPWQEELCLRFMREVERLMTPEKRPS
Put plainly: Inhibition of FAAH in OF1 albino mouse brain homogenate assessed as reduction in [3H]ethanolamine production using [3H]anandamide as substrate. It counts as tissue-based.

The target in the next series is Cannabinoid receptor 2 (Homo sapiens, UniProt P34972). Put plainly: Displacement of [3H]-CP55940 from recombinant human CB2 receptor expressed in CHO cells incubated for 90 mins by scintillation counting method. It counts as cell-based.
Series [4] concerns the target T4, Fatty-acid amide hydrolase 1 (Rattus norvegicus) (UniProt P97612).
T4 sequence (whole entry): T2 sequence (P97612 whole entry)
The series is described as follows: Inhibition of FAAH in rat brain homogenate using AEA as substrate at 100 nM preincubated for 15 mins followed by substrate addition and measured after 10 mins by scintillation counting method relative to control. The format is tissue-based. The conditions noted are these: time 25.0 min.

The target of series [5] is T4, Fatty-acid amide hydrolase 1 (Rattus norvegicus). The series is described as follows: Inhibition of FAAH in rat brain homogenate using [3H]AEA as substrate at 100 uM incubated for 10 mins by liquid scintillation spectroscopy relative to control. It counts as tissue-based.
The target in series [6] is T2, Fatty-acid amide hydrolase 1. Put plainly: Inhibition of FAAH in Sprague-Dawley rat brain homogenate using arachidonoyl-ethanolamide and anandamide [ethanolamine-1-3H] as substrate pre-incubated for 10 mins followed by substrate addition and measured after 30 mins by liquid scintillation counting method. It counts as tissue-based.
Series [7] addresses T1, Fatty-acid amide hydrolase 1. The series is described as follows: Inhibition of human FAAH expressed in HEK293 cells using AMC arachidonyl amide as substrate pre-incubated for 50 mins followed by substrate addition and measured after 30 mins by fluorescence method. The format is cell-based.
In series [8] the target is T4, Fatty-acid amide hydrolase 1 (Rattus norvegicus). The series is described as follows: Inhibition of rat FAAH expressed in HEK293 cells using AEA as substrate at 100 uM by liquid chromatography/mass spectroscopy relative to control. The format is cell-based.
Series [9] has as its target T1, Fatty-acid amide hydrolase 1. Put plainly: Inhibition of human recombinant FAAH using (AMC) arachidonoyl amide as substrate preincubated for 5 mins followed by substrate addition and measured after 30 mins by fluorescence method.
A short description of series [10]: Kinetic solubility of compound in PBS at pH 7.4. It counts as physicochemical. As to conditions: read-out: Kinetic_solubility.

As a reminder, the IC50 is the concentration that gives 50% inhibition. What is called inhibition is how much of the control response was suppressed. Read a low inhibition as little suppression.

A value given as a limit tells only on which side of the number the result lay.

Chain of Cannabinoid receptor 2 (P34972 whole entry): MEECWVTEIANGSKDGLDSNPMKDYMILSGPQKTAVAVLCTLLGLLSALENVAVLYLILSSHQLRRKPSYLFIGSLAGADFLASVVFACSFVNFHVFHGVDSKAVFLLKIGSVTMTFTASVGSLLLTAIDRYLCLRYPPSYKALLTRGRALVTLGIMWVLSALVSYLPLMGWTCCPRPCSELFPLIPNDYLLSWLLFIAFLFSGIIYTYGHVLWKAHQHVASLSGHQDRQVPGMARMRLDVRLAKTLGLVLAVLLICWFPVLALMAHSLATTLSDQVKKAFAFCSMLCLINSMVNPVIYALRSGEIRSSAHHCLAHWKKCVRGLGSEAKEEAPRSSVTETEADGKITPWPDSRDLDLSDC

In turn, `CCCCCOc1ccccc1-c1cc(C(=O)NC23CC4CC(CC(C4)C2)C3)no1` showed an IC50 in series [1] of more than 10000 nM. With `O=C(NCCc1ccc(-c2ccccc2)cc1)n1ccc(=O)[nH]c1=O`, in [2], the IC50 amounted to 53 nM. `O=C(NCCCc1ccccc1)n1cc(C(F)(F)F)c(=O)[nH]c1=O` showed an IC50 in series [2] of 21 nM.

`COc1ccc2c(cccc2[C@H]2CO[C@H](CCCNC(=O)OCC(N)=O)OC2)c1`: the IC50 in series [3] turned out to be 62.5 nM. On to `CCCCCOc1ccc(-c2cc(C(=O)NC34CC5CC(CC(C5)C3)C4)no2)cc1`, for which the IC50 at Cannabinoid receptor 2 was more than 1000 nM. Consider `CN(C(=O)n1cnc(-c2ccc[n+]([O-])c2)c1)C1CCCCC1`, for which the inhibition in series [4] is 85%.

In series [5], `COc1cccc(N2CCN(C(=O)C(C)c3ccc(CC(C)C)cc3)CC2)c1` (stereo not drawn) yielded an inhibition of 41%.

Regarding `O=C(NCCCCN1CCN(c2cccc(Cl)c2Cl)CC1)Oc1ccc2ccccc2c1`, the values for the 50% inhibitory concentration (IC50) in series [6] and in series [7] were 13 nM and 2.7 nM, respectively. Regarding `NC(=O)c1ccc(-c2ccc(OC(=O)NCCCCN3CCN(c4cccc(Cl)c4Cl)CC3)cc2)cc1`, the results for the concentration for half-maximal inhibition (IC50) in [6] and in series [7] were 0.7 nM and 0.6 nM, respectively. For `CCCCCCCC/C=C\CCCCCCCC(=O)NO`, the inhibition in [8] came to 98.3%. The compound `Cc1ccccc1N1CCN(C(=O)C(C)c2ccc(CC(C)C)cc2)CC1` (stereo not drawn) came in with an inhibition in series [5] of 33%. Turning to `O=C1/C(=N/c2nc3ccccc3[nH]2)c2ccccc2N1C(=O)c1ccc(Cl)cc1Cl`, the half-maximal inhibitory concentration (IC50) in series [9] stood at 1490 nM.

`CC(C)Cc1ccc(C(C)C(=O)NCc2c(Cl)cccc2Cl)cc1` (stereo not drawn) gave an inhibition in [5] of 19%.

Turning to `O=C(NCCCCN1CCN(c2cccc(Cl)c2Cl)CC1)Oc1cccc2ccccc12`, the results for the IC50 in series [6] and in series [7] were 22 nM and 6.1 nM, respectively. Further, in series [10], the solubility kinetic is less than 1 µM.
